The values below come from paper PMC7221740, “Cyclic Synthetic Peroxides Inhibit Growth of Entomopathogenic Fungus Ascosphaera apis without Toxic Effect on Bumblebees” (Molecules, 2020).

In series [1] the test system is A. apis. On the set-up: method as in PMID 30862950. The conditions noted are these: ref [54]; cited from earlier work.
The test system of another series is Ascosphaera apis. Nature of the series: Inhibition of radial growth of Ascosphaera apis mycelium in potato-saccharose agar. The conditions noted are these: 72 h; for inhibition at 30 µg/mL / EC50: Ascosphaera apis; for inhibition at 30 µg/mL / Mycelium Growth Inhibition (I), %: A. apis, concentration 30 mg/L, potato-saccharose agar, 25 °C; for inhibition at 30 µg/mL: read-out: Mycelium Growth Inhibition (I), %; for EC50: A. apis mycelium growth, read-out: EC50 (mg/L) ± SD, fungicidal activity. The format is cell-based.

Series [2] relates to A. apis. The arrangement: method as in PMID 22263693. The settings on record: ref [55]; read-out: IC50 against A. apis; cited from earlier work.
In series [3] the test system is bumblebees Bombus terrestris L. Nature of the series: Toxic effect on bumblebees (feeding with inverted sugar syrup). It is filed as in vivo. The conditions noted are these: concentration not given. As for the experimental part:
In the next step, we evaluated the toxicity of active peroxides 1–4, 6 towards bumblebees. Two approaches were used for this purpose. The first approach was a contact action of bumblebees with 30 mg/L solution of peroxide in water containing DMSO (5% vol.). The second approach was feeding of bumblebees with inverted sugar syrup containing peroxides 1–4, 6 (the concentration of peroxide was 30 mg/L) and DMSO (5% vol.). The mortality of bumblebees after their contact with solutions of peroxides 1–4, 6 was absent. […] However, after the consumption of sugar syrup containing difenoconazole or penconazole, the ability of bumblebees to fly was decreased by 1.4 times and 1.3 times, respectively (Figure 4). On average, bumblebees from the control group were in flight for 9 min 28 s. After the consumption of syrup with difenoconazole and penconazole (see Materials and methods), the time spent by insects in flight decreased to 6 min 36 s and 7 min 17 s, respectively.
Peroxide 1–4, 6 (0.3 mg or 3.0 mg) was added to 500 µL of DMSO, and the resulting solution was diluted with 60% inverted sugar syrup to 10 mL. After that, 30 mg/L or 300 mg/L solution of peroxide in inverted sugar syrup containing DMSO (5% vol.) was obtained. A solution of DMSO (500 µL) in 60% inverted sugar syrup was used as the control solution. […]

The test system is the same in series [4]. Nature of the series: Ability of bumblebees to fly. The format is in vivo. The settings on record: for Ability of bumblebees to fly in the contact action test: peroxides 30 mg/L in water with DMSO (5% vol.); for Decrease of the ability of bumblebees to fly after consumption of sugar syrup: feeding, versus control group.
For series [5] the test system is unchanged. In words: Toxic effect on bumblebees (contact action). The settings on record: concentration not given.

≈ marks a conversion by molar mass, not a printed value.

As usually defined, the inhibition is the percentage by which the read-out fell short of the control. Usually melting point stands for the temperature, or range, at which the solid turns liquid. Broadly, the IC50 is the midpoint of a concentration-inhibition curve.

For the compound `COc1ccc(C(=O)/C=C/c2ccc(O)cc2)c(O)c1CC=C(C)C` [4-hydroxyderricin], the “MIC against A. apis” value with A. apis [1] is 6.25 µg/mL (≈ 18.5 µM).
Regarding `C=CCC1(C(=O)OCC)CCC2(C)OOC1(C)O2` (centres unmarked) [Compound 1, Ethyl-2-allyl-1,5-dimethyl-6,7,8-trioxabicyclo[3.2.1]octane-2-carboxylate], in the series with Ascosphaera apis, the inhibition at 30 µg/mL was found to be 94% and the EC50 was determined as 4 ± 0.2 mg/L (≈ 15.6 µM).
With `CC12OOC(C)(OO1)C2C12CC3CC(CC(C3)C1)C2` (centres unmarked) [Compound 6, 7-(Adamantan-1-yl)-1,4-dimethyl-2,3,5,6-tetraoxabicyclo[2.2.1]heptane], the melting point lay in the range of 130 to 131 °C. Moreover, in the series with Ascosphaera apis, the inhibition at 30 µg/mL was 94% and the EC50 came to 1.6 ± 0.1 mg/L (≈ 6.01 µM).
The compound `COc1ccc(C23OOC4(C)OC(C)(CCC42)O3)cc1` (centres unmarked) [Compound 7, 3-(4-Methoxyphenyl)-6,7a-dimethyltetrahydro-3H,4H-3,6-epoxy[1,2]dioxolo[3,4-b]pyran] gave a melting point of 89 to 90 °C. In the series on Ascosphaera apis, the inhibition at 30 µg/mL came to 53%.
Compound `C=CCC12CCC3(C)OC1(C)OOC2(C)O3` [Compound 8, 3a-Allyl-3,6,7a-trimethyltetrahydro-3H,4H-3,6-epoxy[1,2]-dioxolo[3,4-b]pyran] came in with a melting point of 43 to 44 °C. Moreover, in the series with Ascosphaera apis, the inhibition at 30 µg/mL was 25%.
Turning to `CO/N=C(/C(=O)OC)c1ccccc1COc1ccccc1C` [Kresoxim-methyl 10, Kresoxim-methyl], in the series on Ascosphaera apis, the “Mycelium Growth Inhibition (I), %” value is 88%; the inhibition at 30 µg/mL was less than 100%; the EC50 is less than 1 mg/L. Moreover, the “Mycelium Growth Inhibition (I), %” value in the series on Ascosphaera apis (listed as Kresoxim-methyl) was “did not completely inhibit”.
`CCCCCC(=O)O[C@H]1C(=O)c2c(O)cc(O)cc2O[C@@H]1c1ccccc1` [Pinobanksin-3-hexanoate]: in the series with A. apis [2], the half-inhibitory concentration (IC50) is 23 ± 2 µM.
`CC(C)(C)C(=O)C(Oc1ccc(Cl)cc1)n1cncn1` (centres unmarked) [Triadimefon 9, Triadimefon]: in the series with Ascosphaera apis, the “Mycelium Growth Inhibition (I), %” value was 91%; the inhibition at 30 µg/mL was less than 100%; the EC50 is 7.1 ± 0.8 mg/L (≈ 24.2 µM).
With `CC1COC(Cn2cncn2)(c2ccc(Oc3ccc(Cl)cc3)cc2Cl)O1` (centres unmarked) [difenoconazole], the “Bumblebee mortality after consumption of syrup with commercial fungicide” value in series [3] is on record as “had not increased”. In addition, in series [4], the “Ability of bumblebees to fly in the contact action test” value is on record as “did not affect the ability to fly” and the “Decrease of the ability of bumblebees to fly after consumption of sugar syrup” value came out at 1.4 times. Moreover, in series [5], the “Bumblebee mortality in contact with commercial fungicide” value was “had not increased”.
In the case of `CCCC(Cn1cncn1)c1ccc(Cl)cc1Cl` (centres unmarked) [penconazole], the “Bumblebee mortality after consumption of syrup with commercial fungicide” value in series [3] is reported as “had not increased”. In series [4], the “Ability of bumblebees to fly in the contact action test” value is reported as “did not affect the ability to fly” and the “Decrease of the ability of bumblebees to fly after consumption of sugar syrup” value worked out at 1.3 times. Further, the “Bumblebee mortality in contact with commercial fungicide” value in series [5] is listed as “had not increased”.
